Measured values: patent US5416073A, “Growth hormone-releasing peptides and method of treating animals, therewith” (The Adminstrators of the Tulane Educational Fund, priority 1985, dated 1995)

Legend:
[1] = test system: Growth Hormone Release; assay: Peptide effects on growth hormone release, plasma GH by RIA in anesthetized male rats; assay type: in vivo, rat; settings: for Plasma GH: 15 min
Protocol: In this evaluation, the procedures described by W. A. Murphy et al., Endocrinology 109:491-495 (1980), were employed.
In growth hormone (GH) experiments, male rats (Charles Rivers) were anesthetized with NEMBUTAL® (6 mg per 100 g body weight) which also served to maintain stimulated plasma GH levels. Exactly 30 minutes after the rats were anesthetized, 0.5 mL of saline or the test peptide in saline was administered as a SC bolus. A 1 mL blood sample was drawn from the jugular vein 15 minutes after the injection of the peptide in saline. GH levels were determined using NIADDKD rat GH RIA components.

[2] = test system: dairy cows; assay: Effect on milk production in dairy cows, treatments administered subcutaneously; assay type: in vivo; settings: for Milk Production: 10-day treatment period, mean, saline control 22.2; for % increase over control: milk production, vs saline control
Protocol: In this test, treatments are administered using a Latin Square design using four cows. Each treatment period is 10 days, and the interval between treatments is 4 days.
There is a pre-treatment period of one week, at the end of which each cow receives an indwelling jugular catheter. Catheters are flushed daily with heparinized (500-1000 IU/ml) sterile saline to help maintain potency and are replaced as needed.
The drugs are solubilized in sterile saline and injected subcutaneously each day with the dosage based on the cow's weight. Dosages range from 0.06 mg/kg animal/day to 60 mg/kg animal/day, preferably 0.10 mg/kg animal/day to 50 mg/kg/day.
On the first and last treatment days of each period, blood is collected at 15 minute intervals for 1 hour prior to and 11/2 hours after treatment; sampling continues at 30 minutes intervals for an additional 31/2 hours.
Milk samples are obtained on the evening proceeding each bleeding day, the morning of each bleeding day and combined (50% each).
Feed intake, refusals and milk production is monitored for all animals.
Results obtained are reported as mean milk production in kg/day for each treatment and compared against a saline control.

For CC[C@H](C)[C@H](NC(=O)[C@H](C)NC(=O)[C@H](CC(=O)O)NC(=O)[C@@H](C)NC(=O)[C@@H](N)Cc1ccc(O)cc1)C(=O)N[C@@H](Cc1ccccc1)C(=O)N[C@H](C(=O)N[C@@H](CC(N)=O)C(=O)N[C@@H](CO)C(=O)N[C@@H](Cc1ccc(O)cc1)C(=O)N[C@@H](CCCNC(=N)N)C(=O)N[C@@H](CCCCN)C(=O)N[C@H](C(=O)N[C@@H](CC(C)C)C(=O)NCC(=O)N[C@@H](CCC(N)=O)C(=O)N[C@@H](CC(C)C)C(=O)N[C@@H](CO)C(=O)N[C@@H](C)C(=O)N[C@@H](CCCNC(=N)N)C(=O)N[C@@H](CCCCN)C(=O)N[C@@H](CC(C)C)C(=O)N[C@@H](CC(C)C)C(=O)N[C@@H](CCC(N)=O)C(=O)N[C@@H](CC(=O)O)C(=O)N[C@H](C(=O)N[C@@H](CCSC)C(=O)N[C@@H](CO)C(=O)N[C@@H](CCCNC(=N)N)C(N)=O)[C@@H](C)CC)C(C)C)[C@@H](C)O [[D-Ala^2]-hpGRF(1-29)-NH2, D-alanine^2-human Pancreatic Growth Hormone-Releasing(1-29)-amide], the “Plasma GH” value ([1]; dose 0.08 μg/100 g BW SC, saline 454 ± 62) was 1118 ± 158 ng/mL, the “Plasma GH” value ([1]; dose 0.20 μg/100 g BW SC, saline 454 ± 62) was 2122 ± 350 ng/mL and the “Plasma GH” value ([1]; dose 0.50 μg/100 g BW SC, saline 454 ± 62) was 3539 ± 109 ng/mL. The “Milk Production” value ([2]; 0.4 mg/kg/day SC) was 23.9 kg/day, the “Milk Production” value ([2]; 0.8 mg/kg/day SC) was 23.8 kg/day and the “% increase over control” value ([2]; 0.4 mg/kg/day SC) was “+7.6%”. For the same molecule, the “% increase over control” value ([2]; 0.8 mg/kg/day SC) was “+7.2%”.
For CCCC[C@H](NC(=O)[C@@H](NC(=O)[C@H](CC(=O)O)NC(=O)[C@H](CCC(N)=O)NC(=O)[C@H](CC(C)C)NC(=O)[C@H](CC(C)C)NC(=O)[C@H](CCCCN)NC(=O)[C@H](CCCNC(=N)N)NC(=O)[C@H](C)NC(=O)[C@H](CO)NC(=O)[C@H](CC(C)C)NC(=O)[C@H](CCC(N)=O)NC(=O)CNC(=O)[C@H](CC(C)C)NC(=O)[C@@H](NC(=O)[C@H](CCCCN)NC(=O)[C@H](CCCNC(=N)N)NC(=O)[C@H](Cc1ccc(O)cc1)NC(=O)[C@H](CO)NC(=O)[C@@H](CC(N)=O)NC(=O)[C@@H](NC(=O)[C@H](Cc1ccccc1)NC(=O)[C@@H](NC(=O)[C@H](C)NC(=O)[C@H](CC(=O)O)NC(=O)[C@@H](C)NC(=O)[C@@H](N)Cc1ccc(O)cc1)[C@@H](C)CC)[C@@H](C)O)C(C)C)[C@@H](C)CC)C(=O)N[C@@H](CO)C(=O)N[C@@H](CCCNC(=N)N)C(N)=O [D-Ala^2 -D-Asn^8 -Nle^27, D-alanine^2, D-asparagine^8, Norleucine^27-human Pancreatic Growth Hormone-Releasing(1-29)-amide], the “Plasma GH” value ([1]; dose 0.05 ug/100 g BW SC, saline 203 ± 39) was 407 ± 53 ng/mL and the “Plasma GH” value ([1]; dose 0.5 ug/100 g BW SC, saline 203 ± 39) was 1613 ± 138 ng/mL.
For “N-acetyl-L-histidine-1,D-alanine^2 -human Pancreatic Growth Hormone-Releasing(1-29)-amine [[N-Ac-His^1, D-Ala^2]-hpGRF(1-29)-NH2]”, the “Plasma GH” value ([1]; dose 1.0 μg/100 g BW SC, saline 541 ± 78) was 1974 ± 274 ng/mL and the “Plasma GH” value ([1]; dose 5.0 μg/100 g BW SC, saline 541 ± 78) was 4989 ± 638 ng/mL.
For “Ac-YADAIFTNSYRRVLGQLSARRLLQDIMSR-NH2 [[N-Ac-Tyr, Arg^12, 21]-hpGRF(1-29)-NH2, N-acetyl Arginine^12,21-human Pancreatic Growth Hormone-Releasing Factor (1-29)-amide]”, the “Plasma GH” value ([1]; dose 1 μ/100 g BW SC, saline 27% ± 54) was 796 ± 88 ng/mL and the “Plasma GH” value ([1]; dose 2.5 μ/100 g BW SC, saline 27% ± 54) was 1649 ± 167 ng/mL.
For “N-acetyl-L-histidine-1,D-alamine-2,L-norleucine-27-human Pancreatic Growth Hormone-Releasing (1-29)-amine [N-AcHis^1, D-Ala^2, Nle^27]”, the “% Potency” value ([1]; by comparison to pooled standards GRF(1-29)-NH2, limits in parenthesis) was 1574 (1112-2226) %, the “Plasma GH” value ([1]; dose 0.5 (unit not given), SC) was 1146 ± 143 and the “Plasma GH” value ([1]; dose 1.25 (unit not given), SC) was 1907 ± 603.
In the case of CC[C@H](C)[C@H](NC(=O)[C@H](C)NC(=O)[C@H](CC(=O)O)NC(=O)[C@H](C)NC(=O)[C@H](Cc1ccc(O)cc1)NC(C)=O)C(=O)N[C@@H](Cc1ccccc1)C(=O)N[C@H](C(=O)N[C@@H](CC(N)=O)C(=O)N[C@@H](CO)C(=O)N[C@@H](Cc1ccc(O)cc1)C(=O)N[C@@H](CCCNC(=N)N)C(=O)N[C@@H](CCCCN)C(=O)N[C@H](C(=O)N[C@@H](CC(C)C)C(=O)NCC(=O)N[C@@H](CCC(N)=O)C(=O)N[C@@H](CC(C)C)C(=O)N[C@@H](CO)C(=O)N[C@@H](C)C(=O)N[C@@H](CCCNC(=N)N)C(=O)N[C@@H](CCCCN)C(=O)N[C@@H](CC(C)C)C(=O)N[C@@H](CC(C)C)C(=O)N[C@@H](CCC(N)=O)C(=O)N[C@@H](CC(=O)O)C(=O)N[C@H](C(=O)N[C@@H](CCSC)C(=O)N[C@@H](CO)C(=O)N[C@@H](CCCNC(=N)N)C(N)=O)[C@@H](C)CC)C(C)C)[C@@H](C)O [N-Ac-hpGRF(1-29)-NH2, N-acetyl Human Pancreatic Growth Hormone-Releasing Factor(1-29)-Amide], the “Plasma GH” value ([1]; dose 1.20 μg/100 g BW SC, saline 342 ± 53) is reported as 2518 ± 598 ng/mL and the “Plasma GH” value ([1]; dose 3.0 μg/100 g BW SC, saline 342 ± 53) is reported as 4899 ± 557 ng/mL.
